Measurements as given in patent US20240139211A1, “METHODS AND COMPOSITIONS FOR TREATING AMYOTROPHIC LATERAL SCLEROSIS” (Amylyx Pharmaceuticals, Inc., priority 2022, published 2024).
pIC50: −log10 of the molar value. Like-named read-outs stand apart in the source and are kept apart here.

Key:
CYP3A4 mRNA = assay: in vitro; conditions: human, hepatocyte cultures
CYP1A2 = CYP1A2 enzyme activity induction in hepatocyte cultures
OATP1B3 = OATP1B3 (Homo sapiens, UniProt Q9NPD5); assay: in vitro
BCRP = molecular target: T1, BCRP (Homo sapiens, UniProt Q9UNQ0); assay: in vitro; conditions: Caco-2 cells, probe 3H-estrone-3-sulfate
T1 sequence (Q9UNQ0 1-655): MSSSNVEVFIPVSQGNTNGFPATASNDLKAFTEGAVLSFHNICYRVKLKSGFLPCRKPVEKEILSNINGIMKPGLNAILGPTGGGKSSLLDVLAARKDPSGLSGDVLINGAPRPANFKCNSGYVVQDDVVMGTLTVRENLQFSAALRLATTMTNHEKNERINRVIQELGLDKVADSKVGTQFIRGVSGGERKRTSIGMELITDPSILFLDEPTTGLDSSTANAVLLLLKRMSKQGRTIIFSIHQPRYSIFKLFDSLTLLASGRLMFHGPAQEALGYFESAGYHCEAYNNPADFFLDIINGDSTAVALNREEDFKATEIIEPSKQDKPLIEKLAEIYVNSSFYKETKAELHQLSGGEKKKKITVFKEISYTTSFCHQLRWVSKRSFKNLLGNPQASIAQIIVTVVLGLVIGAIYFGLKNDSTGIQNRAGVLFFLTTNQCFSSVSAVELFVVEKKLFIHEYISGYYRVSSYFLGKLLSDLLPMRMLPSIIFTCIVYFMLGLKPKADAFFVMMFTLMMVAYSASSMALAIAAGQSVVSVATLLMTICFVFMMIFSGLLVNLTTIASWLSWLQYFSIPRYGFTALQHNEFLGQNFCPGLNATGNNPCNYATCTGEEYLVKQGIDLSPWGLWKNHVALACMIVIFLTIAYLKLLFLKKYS

[1] = male, CD (Sprague-Dawley) IGS, rat, in vivo
in vivo = conditions: male, CD (Sprague-Dawley) IGS, rat, po, 840 mg/kg
OCT2 [2] = molecular target: T2, OCT2 (Homo sapiens, UniProt O15244); assay: in vitro
T2 sequence (O15244 1-555): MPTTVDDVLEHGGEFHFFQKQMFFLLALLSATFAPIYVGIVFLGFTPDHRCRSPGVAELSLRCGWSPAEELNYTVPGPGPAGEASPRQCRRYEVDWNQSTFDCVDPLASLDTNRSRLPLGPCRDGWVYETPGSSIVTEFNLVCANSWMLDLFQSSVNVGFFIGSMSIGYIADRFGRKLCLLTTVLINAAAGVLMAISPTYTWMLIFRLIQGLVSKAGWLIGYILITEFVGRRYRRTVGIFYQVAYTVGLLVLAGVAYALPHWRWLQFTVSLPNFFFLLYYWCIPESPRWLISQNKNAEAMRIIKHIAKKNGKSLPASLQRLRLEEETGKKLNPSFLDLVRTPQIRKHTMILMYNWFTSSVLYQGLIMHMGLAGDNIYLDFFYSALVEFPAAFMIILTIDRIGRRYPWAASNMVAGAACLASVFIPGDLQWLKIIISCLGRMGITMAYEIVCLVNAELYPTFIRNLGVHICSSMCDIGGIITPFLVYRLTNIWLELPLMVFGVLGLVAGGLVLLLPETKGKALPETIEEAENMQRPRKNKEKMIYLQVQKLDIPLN

[3] = CYP reaction phenotyping, CYP control (negative control without CYP enzymes), % remaining; assay type: in vitro ADME; conditions: CYP Control 0.1 mg protein/mL, 5 μM TA, PB and TUDCA co-incubated
Protocol: The percent remaining of TA was calculated using the following equation: […]

OAT1 = molecular target: T3, OAT1 (Homo sapiens, UniProt Q4U2R8); assay: OAT1 inhibition, PAH uptake in transfected HEK cells
T3 sequence (Q4U2R8 1-563): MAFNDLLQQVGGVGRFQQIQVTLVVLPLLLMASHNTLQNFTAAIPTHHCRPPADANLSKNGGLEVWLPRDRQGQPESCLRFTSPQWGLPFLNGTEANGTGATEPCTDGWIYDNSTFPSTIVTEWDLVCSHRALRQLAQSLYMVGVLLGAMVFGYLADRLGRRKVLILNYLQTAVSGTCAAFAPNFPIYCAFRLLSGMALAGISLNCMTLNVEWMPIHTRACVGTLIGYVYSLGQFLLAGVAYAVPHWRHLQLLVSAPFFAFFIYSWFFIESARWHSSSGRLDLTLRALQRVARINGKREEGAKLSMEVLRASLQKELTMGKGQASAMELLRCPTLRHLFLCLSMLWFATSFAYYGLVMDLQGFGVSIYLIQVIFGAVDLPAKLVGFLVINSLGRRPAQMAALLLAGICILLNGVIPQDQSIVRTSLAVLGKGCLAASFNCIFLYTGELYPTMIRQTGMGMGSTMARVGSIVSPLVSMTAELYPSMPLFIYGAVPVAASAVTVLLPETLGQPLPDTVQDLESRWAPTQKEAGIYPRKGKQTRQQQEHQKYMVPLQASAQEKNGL

MATE2K = MATE2K (Homo sapiens, UniProt Q86VL8); assay: MATE2K inhibition, metformin uptake in transfected HEK cells; conditions: read-out: Estimated IC50 toward MATE2K; TUDCA and PB present simultaneously
Chain of MATE2K (Q86VL8 1-566 isoform Q86VL8-3): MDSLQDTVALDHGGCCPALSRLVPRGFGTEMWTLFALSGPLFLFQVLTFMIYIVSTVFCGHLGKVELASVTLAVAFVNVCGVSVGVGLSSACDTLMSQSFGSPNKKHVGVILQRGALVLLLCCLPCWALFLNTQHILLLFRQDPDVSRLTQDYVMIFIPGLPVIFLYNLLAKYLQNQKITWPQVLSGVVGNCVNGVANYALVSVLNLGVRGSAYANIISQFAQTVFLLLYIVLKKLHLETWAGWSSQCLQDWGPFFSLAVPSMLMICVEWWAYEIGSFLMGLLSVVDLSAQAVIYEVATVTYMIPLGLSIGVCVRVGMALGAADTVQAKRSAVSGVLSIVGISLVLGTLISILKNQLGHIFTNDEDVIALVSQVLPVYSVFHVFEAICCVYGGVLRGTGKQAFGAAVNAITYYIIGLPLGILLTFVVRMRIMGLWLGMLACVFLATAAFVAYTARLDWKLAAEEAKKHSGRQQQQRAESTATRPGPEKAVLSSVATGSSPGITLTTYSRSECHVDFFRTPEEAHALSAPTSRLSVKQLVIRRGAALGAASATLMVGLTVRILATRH

human plasma protein = assay: Human plasma protein binding; assay type: in vitro ADME
OCT2 [4] = molecular target: T2, OCT2; assay: OCT2 inhibition, MPP+ uptake in transfected HEK cells; conditions: read-out: Estimated IC50 toward OCT2; TUDCA and PB present simultaneously

Chain of OATP1B3 (Q9NPD5 whole entry): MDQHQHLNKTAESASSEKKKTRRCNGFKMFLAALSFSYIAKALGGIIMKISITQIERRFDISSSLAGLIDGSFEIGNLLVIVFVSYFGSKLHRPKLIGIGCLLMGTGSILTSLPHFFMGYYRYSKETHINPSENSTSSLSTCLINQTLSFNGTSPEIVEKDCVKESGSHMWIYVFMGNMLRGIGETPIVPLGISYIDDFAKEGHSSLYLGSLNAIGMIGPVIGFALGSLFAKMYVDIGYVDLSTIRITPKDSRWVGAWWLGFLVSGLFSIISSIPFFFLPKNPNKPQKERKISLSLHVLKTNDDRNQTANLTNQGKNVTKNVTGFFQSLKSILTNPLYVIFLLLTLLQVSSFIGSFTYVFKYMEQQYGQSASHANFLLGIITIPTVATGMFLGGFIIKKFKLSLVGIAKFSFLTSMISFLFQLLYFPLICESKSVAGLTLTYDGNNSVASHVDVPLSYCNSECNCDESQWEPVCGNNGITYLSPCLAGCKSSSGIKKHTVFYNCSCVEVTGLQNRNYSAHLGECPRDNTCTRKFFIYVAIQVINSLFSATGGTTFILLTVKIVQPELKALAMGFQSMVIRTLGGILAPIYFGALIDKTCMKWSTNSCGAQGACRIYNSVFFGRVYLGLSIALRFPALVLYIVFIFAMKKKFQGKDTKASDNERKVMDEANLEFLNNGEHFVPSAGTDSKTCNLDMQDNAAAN

In the case of C[C@H](CCC(=O)NCC(=O)O)[C@H]1CC[C@H]2[C@@H]3[C@@H](O)C[C@@H]4C[C@H](O)CC[C@]4(C)[C@H]3CC[C@]12C [Glycoursodeoxycholic acid, glycoursodeoxycholic acid], the fold induction at 72 h (CYP3A4 mRNA) was 2.44, the “Maximum fold induction of CYP2B6 activity” value (CYP2B6; Donor 1) was 1.50 fold and the “Maximum fold induction of CYP2B6 activity” value (CYP2B6; Donor 2) was 2.81 fold. For the same molecule, the “Maximum fold induction of CYP2B6 activity” value (CYP2B6; Donor 3) was 1.52 fold, the “Maximum fold induction of CYP1A2 activity” value (CYP1A2; Donor 1, 72±2 h, three concentrations) was 5.93 fold and the “Maximum fold induction of CYP1A2 activity” value (CYP1A2; Donor 2) was 3.08 fold. For the same molecule, the “Maximum fold induction of CYP1A2 activity” value (CYP1A2; Donor 3) was 9.43 fold, the potency estimated from few doses (OATP1B3) was less than 100 µM and the potency estimated from few doses (BCRP) was greater than 100 µM.
With O=C(O)CCCc1ccccc1 [PB, sodium phenylbutyrate] the “Time through which plasma concentrations remained quantifiable” value [1] was 4 h and the Tmax (in vivo) was 15 to 30 min.
In the case of O=C(O)Cc1ccccc1 [Phenylacetic acid, phenylacetic acid], the potency estimated from few doses (OCT2 [2]) was less than 7500 µM.
In the case of tauroursodeoxycholic acid [TUDCA], the “% Remaining of TA” value ([3]; 0 min) was 100%, the “% Remaining of TA” value ([3]; 5 min) was 99.4% and the “% Remaining of TA” value ([3]; 10 min) was 97.9%. The “% Remaining of TA” value ([3]; 20 min) was 95.9%, the “% Remaining of TA” value ([3]; 30 min) was 93.7% and the “% Remaining of TA” value ([3]; 60 min) was 101%. For the same molecule, the “IC50 for in vitro inhibition of human OAT1” value (OAT1; previous study, converted) was 0.035 to 0.111 µg/mL, the pIC50 (OAT1; read-out: IC50 for in vitro inhibition of human OAT1, previous study (Example 6)) was 6.65 to 7.13 and the pIC50 (MATE2K) was less than 3.09. The “Human Plasma Protein Binding (%)” value (human plasma protein) was 98.5% and the pIC50 (OCT2 [4]) was less than 3.79.
